Measurements published in the supplement of paper PMC8976852.
± gives the standard deviation of the averaged measurements.

Experiments:
Test in all cases: activity (1 - area under the dose-response curve within the screened range) (fraction); higher = more sensitive
Conditions in all cases: treatment time: 72 h
HCM-SANG-0532-C20 = tested on: HCM-SANG-0532-C20 (colorectal cancer organoid)
Method: (§1)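 Patient-derived cancer organoids (colorectal and oesophageal, HCM-SANG models) were grown for up to 6 months in 5% or 80% ECM (BME-2), then seeded in 384-well plates on an ECM layer and treated with 72 compounds for 3 days. Each compound used a 7-point half-log dilution series spanning a 1000-fold range, in technical triplicate and biological duplicate. Dose-response curves were fitted with a non-linear mixed effects model; fits with RMSE > 0.3 were removed, and activity = 1 - AUC within the screened dose range (0 = no activity, 1 = maximum).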

HCM-SANG-0291-C15 = tested on: HCM-SANG-0291-C15 (oesophageal cancer organoid)
Method: as §1

HCM-SANG-0266-C20 = tested on: HCM-SANG-0266-C20 (colorectal cancer organoid)
Method: as §1

HCM-SANG-0270-C20 = tested on: HCM-SANG-0270-C20 (colorectal cancer organoid)
Method: as §1

[1] = ECM percentage in culture prior to screening 5 %
[2] = ECM percentage in culture prior to screening 80 %

Row | SMILES | activity (HCM-SANG-0532-C20; [1]) | activity (HCM-SANG-0532-C20; [2]) | activity (HCM-SANG-0291-C15; [1]) | activity (HCM-SANG-0291-C15; [2]) | activity (HCM-SANG-0266-C20; [1]) | activity (HCM-SANG-0266-C20; [2]) | activity (HCM-SANG-0270-C20; [1]) | activity (HCM-SANG-0270-C20; [2])
1 | CCN(CC)CCCCNc1ncc2cc(-c3cc(OC)cc(OC)c3)c(NC(=O)NC(C)(C)C)nc2n1 | 0.0936 ± 0.015 | 0.0708 ± 0.015 | 0.0598 ± 0.031 | 0.0496 ± 0.0089 | 0.0628 ± 0.031 | 0.0486 ± 0.023 | 0.0417 ± 0.029 | 0.0362 ± 0.015
2 | CCc1cncnc1N1CCN(Cc2nc3ccc(C(F)(F)F)cc3[nH]2)CC1 | 0.222 ± 0.04 | 0.426 ± 0.041 | 0.0688 ± 0.038 | 0.0744 ± 0.019 | 0.206 ± 0.033 | 0.155 ± 0.029 | 0.127 ± 0.026 | 0.162 ± 0.031
3 | COc1cc2c(Nc3ccc(NC(=O)c4ccccc4)cc3)ncnc2cc1OCCCN1CCOCC1 | 0.184 ± 0.07 | 0.166 ± 0.022 | 0.0708 ± 0.031 | 0.0657 ± 0.034 | 0.228 ± 0.027 | 0.212 ± 0.038 | 0.102 ± 0.054 | 0.106 ± 0.06
4 | C[C@@]1(C(=O)Nc2ccc(F)nc2)CCCN1c1nc(Nc2cc(C3CC3)n[nH]2)c2cccn2n1 | 0.279 ± 0.091 | 0.302 ± 0.035 | 0.126 ± 0.039 | 0.172 ± 0.056 | 0.455 ± 0.056 | 0.41 ± 0.056 | 0.18 ± 0.086 | 0.22 ± 0.11
5 | Cc1cccc(-c2[nH]c(C(C)(C)C)nc2-c2ccc3c(c2)OCO3)n1 | 0.0437 ± 0.015 | 0.0531 ± 0.017 | 0.0256 ± 0.0074 | 0.0336 ± 0.018 | 0.0398 ± 0.022 | 0.0534 ± 0.016 | 0.0741 ± 0.023 | 0.0613 ± 0.046
6 | Cn1cc(C2=C(c3ccc(Cl)cc3Cl)C(=O)NC2=O)c2ccccc21 | 0.0778 ± 0.033 | 0.0951 ± 0.05 | 0.0549 ± 0.019 | 0.0522 ± 0.022 | 0.0916 ± 0.037 | 0.0697 ± 0.056 | 0.0629 ± 0.02 | 0.0482 ± 0.021
7 | O=C(Nc1ccc2[nH]nc(-c3ccncc3)c2c1)[C@@H]1CCN(CC(=O)N2CCN(c3ccc(-c4ncccn4)cc3)CC2)C1 | 0.201 ± 0.13 | 0.272 ± 0.056 | 0.236 ± 0.027 | 0.224 ± 0.055 | 0.388 ± 0.086 | 0.155 ± 0.12 | 0.159 ± 0.078 | 0.0818 ± 0.065
8 | O=c1cc(-c2cccc3c2Sc2ccccc2S3)oc(N2CCOCC2)c1 | 0.0709 ± 0.021 | 0.037 ± 0.01 | 0.068 ± 0.034 | 0.0493 ± 0.031 | 0.0362 ± 0.021 | 0.0433 ± 0.027 | 0.0345 ± 0.015 | 0.0384 ± 0.0084
9 | O=c1[nH]cc(F)c(=O)[nH]1 [5-Fluorouracil] | 0.0766 ± 0.035 | 0.121 ± 0.044 | 0.0848 ± 0.043 | 0.063 ± 0.035 | 0.137 ± 0.068 | 0.12 ± 0.061 | 0.123 ± 0.031 | 0.103 ± 0.075
10 | CN(C)CCCOc1ccc(-c2ccc3ncc4c(c3c2)n(C2CCOCC2)c(=O)n4C)cn1 [AZD0156] | 0.0433 ± 0.022 | 0.0427 ± 0.017 | 0.0259 ± 0.013 | 0.0316 ± 0.022 | 0.0443 ± 0.024 | 0.0475 ± 0.024 | 0.0254 ± 0.013 | 0.0244 ± 0.0078
11 | COc1cc(CCc2cc(NC(=O)c3ccc(N4CC(C)NC(C)C4)cc3)n[nH]2)cc(OC)c1 (stereo unspecified) [AZD4547] | 0.0579 ± 0.039 | 0.0368 ± 0.013 | 0.0191 ± 0.001 | 0.0289 ± 0.014 | 0.0268 ± 0.015 | 0.0233 ± 0.0077 | 0.0358 ± 0.023 | 0.0323 ± 0.017
12 | Cc1cc([C@@H](C)Nc2ccccc2C(=O)O)c2nc(N3CCOCC3)cc(=O)n2c1 [AZD6482] | 0.0367 ± 0.021 | 0.0291 ± 0.011 | 0.0199 ± 0.0028 | 0.0269 ± 0.0093 | 0.042 ± 0.03 | 0.0421 ± 0.017 | 0.0274 ± 0.021 | 0.0245 ± 0.008
